# “Also recorded” adds a separate entry of the source.
# Legend:
# D3 DAR [1] = biological target: T1, D3 DAR (Homo sapiens, UniProt P35462); experiment: [3H]-methylspiperone radioligand binding assay; settings: indicated concentrations, FIG. 1B
# Protocol: Compounds were tested for their ability to compete with the orthosteric radioligand [^3H]-methylspiperone for binding to the D3 DAR using HEK cells transiently transfected with the D3 DAR as described in the detailed protocol below presented in Table 5. Cells were cultured in Dulbecco's modified Eagle's Medium (Corning, catalogue no. 10-013) containing 10% FBS, 1,000 units/mL Penicillin, […] Streptomycin, 100 mM sodium pyruvate, 1 μg/mL Gentamicin, and […] G418. All cells were maintained at 37° C. in 5% CO2 and 90% humidity. For radioligand binding assays cells were removed mechanically using calcium-free Earle's balanced salt solution (EBSS). Intact cells were collected by centrifugation and then lysed with 5 mM Tris-HCl and 5 mM MgCl2 at pH 7.4. Homogenates were centrifuged at 30,000×g for 30 minutes. The membranes were re-suspended in EBSS (US Biological, catalogue no. E0249-05) pH 7.4 to a concentration of 16 μg/mL. For competition binding studies, membrane preparations were incubated for 90 minutes at room temperature with various concentrations of compound and a single concentration of [^3H]-methylspiperone (Perkin Elmer, NET856) in a reaction volume of […]. Non-specific binding was determined in the presence of 4 μM (+)-butaclamol (Sigma-Aldrich, catalogue no. D033). Bound ligand was separated from unbound by filtration through GF/C filters using a PerkinElmer cell harvester and quantified on a Top-count (PerkinElmer). Ki values were determined using Cheng-Prusoff equation from observed IC50 values and ligand Kd values from separate saturation experiments.
# D2 DAR [2] = biological target: T2, D2 DAR (Homo sapiens, UniProt P14416); experiment: BRET β-arrestin recruitment assay, D2 DAR; format: cell-based; settings: FIG. 3A right
# T2 sequence (P14416 whole entry): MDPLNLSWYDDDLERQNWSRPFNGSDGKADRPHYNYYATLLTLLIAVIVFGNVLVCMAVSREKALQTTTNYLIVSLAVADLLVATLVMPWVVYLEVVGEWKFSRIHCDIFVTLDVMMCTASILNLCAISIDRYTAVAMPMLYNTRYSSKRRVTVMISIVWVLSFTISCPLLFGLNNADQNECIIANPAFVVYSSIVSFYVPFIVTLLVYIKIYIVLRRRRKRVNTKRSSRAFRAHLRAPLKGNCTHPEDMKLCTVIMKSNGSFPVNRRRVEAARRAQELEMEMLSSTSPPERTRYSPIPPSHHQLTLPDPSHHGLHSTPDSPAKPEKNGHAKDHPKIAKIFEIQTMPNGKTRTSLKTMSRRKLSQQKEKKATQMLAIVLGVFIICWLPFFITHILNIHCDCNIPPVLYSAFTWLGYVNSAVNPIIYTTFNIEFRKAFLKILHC
# Protocol: BRET β-arrestin recruitment assay: As an orthogonal test using an unrelated assay of D2- or D3 DAR-mediated β-arrestin recruitment, an arrestin BRET assay was conducted. HEK293T cells transiently expressing D2-Rluc8, Arrestin3-mvenus and GRK2, or D3-Rluc8, Arrestin3-mvenus, and GRK3 were harvested with EBSS, plated in 96-well plates in Dulbecco's phosphate-buffered saline (DPBS) and incubated at rt for 45 min. […] BRET signal was determined by quantifying and calculating the ratio of the light emitted by mVenus (525 nm) over that emitted by RLuc8 (485 nm) using a PHERAstar FSX Microplate Reader (BMG Labtech).
# D3 DAR [3] = biological target: T1, D3 DAR; experiment: Go BRET activation assay, D3 DAR; format: cell-based; settings: EC80 DA (30 nM)
# Protocol: Briefly, HEK293T cells transiently expressing either the D2 DAR or D3 DAR and GαoA-Rluc8, untagged-β1, and mVenus-γ2 were harvested with EBSS, plated in 96-well white plates at 20,000 cells/well in DPBS and incubated at RT for 45 min. […] BRET signal was determined by quantifying and calculating the ratio of the light emitted by mVenus (525 nm) over that emitted by RLuc8 (485 nm) using a PHERAstar FSX Microplate Reader (BMG Labtech).
# 168 unique GPCRs = experiment: DiscoverX gpcrMAX β-arrestin recruitment assay panel; format: cell-based; settings: 30 μM
# Protocol: (§1) Cmp. 1 was tested as both an agonist (FIG. 5A) or an antagonist (FIG. 5B) at a single high concentration (30 μM) on 168 different GPCRs in the DiscoverX gpcrMAX™ β-arrestin recruitment assay panel (FIGS. 5A and 5B). Assay results are presented as the mean percent activation of indicated GPCRs (for n=2 replicates). For a full description of the DiscoverX gpcrMAX™-GPCR assay panel and methods (see: http://www.DiscoverX.com). […] Data were provided by the National Institute of Mental Health (NIMH) Psychoactive Drug Screening Program (PDSP) (University of North Carolina, Chapel Hill, NC). For experimental details including radioligands used and associated Kd values for each individual target, refer to the PDSP website: http://pdsp.med.unc.edu/. While Cmp. […] The 5-HT6 receptor was not present in the functional panels, however, subsequent testing found Cmp.
# [4] = tested on: 45 GPCRs, ion channels, and neurotransmitter transporters; experiment: PDSP radioligand binding panel; settings: 10 μM
# Protocol: as §1
# 5-HT6 receptor = 5-HT6 receptor (Homo sapiens, UniProt P50406); experiment: 5-HT6 cAMP recruitment assay; format: cell-based; settings: read-out: IC50, antagonism of the 5-HT6 receptor
# Chain of 5-HT6 receptor (P50406 whole entry): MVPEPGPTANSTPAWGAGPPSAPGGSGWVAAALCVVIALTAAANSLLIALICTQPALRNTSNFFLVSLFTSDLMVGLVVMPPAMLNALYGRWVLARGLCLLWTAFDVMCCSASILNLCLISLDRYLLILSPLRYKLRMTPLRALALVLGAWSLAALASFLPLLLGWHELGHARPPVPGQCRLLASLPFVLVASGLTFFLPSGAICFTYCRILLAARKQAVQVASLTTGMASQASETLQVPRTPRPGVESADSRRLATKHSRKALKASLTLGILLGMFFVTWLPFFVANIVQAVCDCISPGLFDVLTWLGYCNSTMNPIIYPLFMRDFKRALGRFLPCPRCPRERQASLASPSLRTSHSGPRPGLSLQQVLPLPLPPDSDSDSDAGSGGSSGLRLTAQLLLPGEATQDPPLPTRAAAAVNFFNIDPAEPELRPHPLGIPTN
# D3 DAR [5] = biological target: T1, D3 DAR; experiment: DiscoverX D3 DAR β-arrestin recruitment assay; format: cell-based; set-up: host or cells: CHO
# Procedure, shortened: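 CHO cells overexpressing D3 DAR fused to a ProLink β-galactosidase fragment plus a β-arrestin–β-galactosidase deletion mutant fusion. Receptor activation drives β-arrestin recruitment and enzyme complementation. Chemiluminescent read-out after detection substrate is added.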
# D2 DAR [6] = biological target: T2, D2 DAR; experiment: DiscoverX D2 DAR β-arrestin recruitment assay; format: cell-based; set-up: host or cells: CHO; settings: EC80 concentration of DA (1 μM)
# Procedure, shortened: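 CHO cells co-expressing ProLink-tagged D2 DAR and enzyme-acceptor-fused β-arrestin (PathHunter enzyme-fragment complementation). Receptor activation recruits β-arrestin, reconstituting β-galactosidase; detection reagent hydrolysis gives chemiluminescent read-out. Same PathHunter format used for other dopamine receptor subtypes.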
# T1 sequence (P35462 whole entry): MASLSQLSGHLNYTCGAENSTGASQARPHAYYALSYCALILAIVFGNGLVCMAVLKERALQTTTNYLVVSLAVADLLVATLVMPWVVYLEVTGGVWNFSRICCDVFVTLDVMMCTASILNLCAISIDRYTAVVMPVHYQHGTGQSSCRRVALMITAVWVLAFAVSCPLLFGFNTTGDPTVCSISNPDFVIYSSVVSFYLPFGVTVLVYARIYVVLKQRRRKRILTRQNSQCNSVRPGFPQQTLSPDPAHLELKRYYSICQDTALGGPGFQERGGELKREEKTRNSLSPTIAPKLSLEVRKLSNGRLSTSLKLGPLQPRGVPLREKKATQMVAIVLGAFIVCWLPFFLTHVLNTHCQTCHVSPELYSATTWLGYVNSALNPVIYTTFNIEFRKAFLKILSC
compound,measurement,setting,value
Cc1ccc(NS(=O)(=O)c2c(C)[nH]c(C)c2C(=O)N2CCCC2)cc1Cl [Cmp. 1],inhibition of [3H]-methylspiperone binding to the D3 DAR,D3 DAR [1],lacks ability to inhibit the binding
same,"antagonist activity at the D2 DAR, BRET β-arrestin",D2 DAR [2],lacked antagonist activity
same,Emax,"D3 DAR [3]; 5 min, read-out: D3 Go BRET Imax",> 100%
same,IC50,D3 DAR [3],10 to 50 µM
same,functional activity at the H1 receptor in the functional panels,168 unique GPCRs; H1 receptor,no functional activity
same,agonist activity in gpcrMAX panel,168 unique GPCRs; agonist mode,lacked agonist activity at all 168 GPCRs
same,antagonist activity in gpcrMAX panel,168 unique GPCRs; antagonist mode,the only GPCR that was antagonized was the D3 DAR
same,off-target affinity / displacement in radioligand binding panel,[4],limited off-target affinity; also recorded: minimal displacement at only the H1 histamine and 5-HT6 serotonin receptors
same,IC50,5-HT6 receptor,> 50 µM
same,IC50,"D3 DAR [5]; DiscoverX β-arrestin assay, FIG. 1A, 2A, read-out: IC50, inhibition of dopamine-stimulated β-arrestin recruitment to the D3 DAR",~16 µM
same,IC50,"D3 DAR [5]; EC80 concentration of DA (30 nM), read-out: D3 DAR IC50",10 to 50 µM
same,Emax,"D3 DAR [5]; Imax=maximum inhibition, EC80 DA (30 nM)",80 to 100%
same,D2 DAR Imax,D2 DAR [6],NA (“NA” indicates not active)
